The values below come from patent US20250179024A1, “AMYLOID AND ASSOCIATED PATHOLOGY MODULATORS AND METHODS THEREOF” (Jawaharlal Nehru Centre for Advanced Scientific Research, priority 2022, published 2025).

The target in one test is T1, Aβ oligomers (Homo sapiens, UniProt P05067).
T1 construct: is a 42 amino acid proteolytic product from the amyloid precursor protein; purchased Invitrogen
As to the kind of experiment: Dot blot assay of Aβ oligomer inhibition (A11 antibody). It is filed as biochemical. To be noted: Aβ 10 μM, NMIs 20 μM, 4° C., 24 h. As for the experimental part: Aggregation modulation by toxic Aβ aggregates were assessed and were quantified by dot blot assay. Aβ peptide (10 μM) was dissolved in phosphate buffered saline (PBS, 10 mM, pH 7.4), incubated alone and with NMIs (20 μM) at 37° C. for 48 h. For concentration dependent inhibition, 10 μM Aβ peptide was incubated with 1, 2, 5, 10 and 20 μM of NMIs and incubated. Samples for oligomer inhibition studies were prepared by incubating Aβ alone and with NMIs at 4° C. for 24 and subjected to dot blot analysis. For dissolution studies, Aβ peptide alone was incubated in PBS for 48 h to prepare fibrils and then incubated with NMIs further for 48 h. For dot blot experiment, 5 μL of sample was blotted on activated PVDF (polyvinylidene fluoride) membrane in triplicates and air dried. The membrane was blocked with skimmed milk powder for 1 h at room temperature. The blot paper was washed with tris-buffered saline with 0.01% Tween 20 (TBST) three times for 5 min. Blot paper was treated with fibril specific OC primary antibody (Rabbit, 1:1000 dilution) overnight at 4° C. For oligomers blot A11 anti-oligomer antibody (Rabbit 1:1000) was used. […] Blots were analyzed and quantified by ImageJ software. […] The ability of NMIs (M3) to inhibit the formation of Aβ oligomers was assessed by dot blot assay. […]

For another test, the system named is Nrf2. Nature of the test: Nrf2 localisation by indirect immunofluorescence. It is filed as cell-based. To be noted: Aβ treated SH-SY5Y cells. As for the experimental part: Cells were cultured in confocal dishes up to 70% confluence and then treated with Aβ alone and with NMIs (M3), and subjected to immunofluorescence. The cells were washed twice with dPBS and then fixed with 4% paraformaldehyde for 15 min. The cells were then washed twice with dPBS for 5 min followed by treatment with permeabilization buffer (dPBS with 0.1% Triton X-100) for 10 min. The permeabilization buffer was aspirated and rinses with dPBS twice for 5 min. The samples were blocked with 10% goat serum in dPBS for 30 min at room temperature. The blocking solution was aspirated and then was treated with primary antibody (Nrf2/Iba1) with desired dilution in 4° C. with gentle shaking overnight. The samples were then washed with dPBS thrice for 5 min each and treated with Alexa Fluor-488 conjugated secondary antibody for 1 h in room temperature. The cells were washed with dPBS thrice and counterstain with DAPI (1 μM) for 10 min and imaged using confocal microscope.
M3 with in vitro antioxidant activity and in cellulo ROS quenching effect was expected to alleviate oxidative stress and modulate Nrf2 response. The effect of M3 on Nrf2 localisation in Aβ treated SH-SY5Y cells were assessed by indirect immunofluorescence staining study. […]

T1 sequence (P05067 672-713 limits assumed): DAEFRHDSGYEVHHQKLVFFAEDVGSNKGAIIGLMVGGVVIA

Compound `CN(C)c1ccc2c3c(cccc13)C(=O)N(CCc1ccc(O)c(O)c1)C2=O` [M1, 2-(3,4-dihydroxyphenethyl)-6-(dimethylamino)-1H-benzo[de]isoquinoline-1,3(2H)-dione] came in with an oligomer inhibition at Aβ oligomers of 33%.
On to `O=C1c2cccc3c(N(Cc4ccccn4)Cc4ccccn4)ccc(c23)C(=O)N1CCc1ccc(O)c(O)c1` [M3, 6-(bis(pyridin-2-ylmethyl)amino)-2-(3,4-dihydroxyphenethyl)-1H-benzo[de]isoquinoline-1,3(2H)-dione], for which the “translocation of Nrf2 to the nucleus” value with Nrf2 is on record as “reduced the translocation of Nrf2 to the nucleus”.
